Experimental findings from PMC9679038, “Hemoglobin is an oxygen-dependent glutathione buffer adapting the intracellular reduced glutathione levels to oxygen availability” (Redox Biology, 2022) are described below.

Broadly, the Kd is the constant that tells how readily two partners part at equilibrium. Lower therefore signals higher affinity.

Structures are written as SMILES.

The test has as its target T1, Hemoglobin (Hb; oxy-Hb, also deoxy-Hb) (Homo sapiens, UniProt P68871+P69905).
T1 construct: gene HBB

T1 sequence (P68871 2-147): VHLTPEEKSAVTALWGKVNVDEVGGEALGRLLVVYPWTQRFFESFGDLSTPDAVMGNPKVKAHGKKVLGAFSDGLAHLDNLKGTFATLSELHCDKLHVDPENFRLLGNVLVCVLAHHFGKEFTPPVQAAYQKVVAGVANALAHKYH
T1 sequence (P69905 2-142): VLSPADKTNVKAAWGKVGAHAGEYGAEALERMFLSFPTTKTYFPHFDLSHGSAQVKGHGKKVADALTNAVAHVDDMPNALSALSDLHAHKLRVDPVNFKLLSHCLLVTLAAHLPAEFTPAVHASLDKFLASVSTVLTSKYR

Regarding `N[C@@H](CCC(=O)N[C@@H](CS)C(=O)NCC(=O)O)C(=O)O` [GSH, reduced glutathione], binding was put at a Kd of 2000 nM.
